Values of other authors as cited in paper PMC8450225 (Bioorganic & Medicinal Chemistry, 2021).
Read-outs that look alike come from different tables or passages of the source. Primed or numbered codes have the meaning given here. Bz′ = not defined here

Key:
HuH-7 cells = settings: 1 µM, three days of incubation on HuH-7 cells, Alamar Blue
dengue serotype 2 = settings: at 1 µM concentration, HuH-7 and K562 cell lines
DENV2 pro [1] = system: DENV2 pro
DENV2 pro [2] = system: DENV2 pro; remark: listed apart in the source
DENV2 pro [3] = system: DENV2 pro; remark: listed apart in the source
DENV2 pro [4] = system: DENV2 pro; remark: listed apart in the source
NS2B-NS3 pro = settings: read-out: Ki (Reported)
DENV2 [5] = settings: DENV2 replication inhibition, BHK21 cells
DENV 1–4 pro = settings: range over DENV 1–4 pro
DENV NS2B-NS3 pro = settings: 50 µM substrate concentration and 50 µM compound concentration
WNV NS2B-NS3 pro = settings: 50 µM substrate concentration and 25 µM compound concentration
DENV2 [6] = settings: antiviral activity against DENV2
DENV = settings: at 100 µM
DENV2 [7] = settings: DENV2 viral replication assay
DENV2 pro [8] = system: DENV2 pro; remark: listed apart in the source

O=C1c2c(O)ccc([N+](=O)[O-])c2C(=O)c2c([N+](=O)[O-])ccc(O)c21 [ARDP0006]
cytotoxicity (HuH-7 cells): non-cytotoxic
reduction of dengue viral titer (dengue serotype 2): > 1 log PFU/mL

COc1cc2nc(NC(=O)c3ccccc3Sc3ccc(C(F)(F)F)cc3)sc2cc1OC [Compound 40]
IC50 (DENV2 pro [1]): inactive

CCc1ccc(NS(=O)(=O)c2ccc(N3C(=O)c4ccccc4C3=O)cc2)cc1 [Compound 46]
IC50 (DENV2 pro [2]): 48.2 µM

Cc1cc(O)c(S(=O)(=O)O)cc1Cc1cc(S(=O)(=O)O)c(O)c(Cc2cc(S(=O)(=O)O)c(O)cc2C)c1C [Compound 60]
IC50 (DENV2 pro [3]): IC50 = 0.48 μg/mL

Bz-Arg-Lys-(4-CF3-benzyl ether)-D-Phg-NH2 [Compound 7]
IC50 (DENV2 pro [4]): 0.069 µM

Ac-RTSKKR-NH2
Ki (NS2B-NS3 pro): 12.1 µM

Bz-Arg-Lys-Phg-NH2 [reference compound]
IC50 (DENV2 pro [4]; starting tripeptide): 3.32 µM

Cc1ccc(C(=O)c2cc(O)c(O)c([N+](=O)[O-])c2)cc1 [Compound 43]
EC50 (DENV2 [5]): 2.29 µM
IC50 (DENV 1–4 pro): 0.64 to 1.15 µM

O=C(OC[C@H]1O[C@@H](OC(=O)c2cc(O)c(O)c(OC(=O)c3cc(O)c(O)c(O)c3)c2)[C@H](OC(=O)c2cc(O)c(O)c(OC(=O)c3cc(O)c(O)c(O)c3)c2)[C@@H](OC(=O)c2cc(O)c(O)c(OC(=O)c3cc(O)c(O)c(O)c3)c2)[C@@H]1OC(=O)c1cc(O)c(O)c(OC(=O)c2cc(O)c(O)c(O)c2)c1)c1cc(O)c(O)c(OC(=O)c2cc(O)c(O)c(O)c2)c1 [Compound 44]
IC50 (DENV 1–4 pro): 0.13 to 0.77 µM

CN(C)C(=O)COC(=O)Cc1ccc(OC(=O)c2ccc(NC(=N)N)cc2)cc1 [Camostat]
Percentage inhibition of NS2B-NS3 pro, DENV (DENV NS2B-NS3 pro): 19.6%
Percentage inhibition of NS2B-NS3 pro, WNV (WNV NS2B-NS3 pro): 12.6%

Bz-Arg-Lys-(4-benzyloxy)-D-Phg-NH2
IC50 (DENV2 pro [4]): 0.367 µM

CCCCC1C(C(=O)N(C)OC)C(c2ccccc2)CCN1C(=O)OC(C)(C)C (stereo not shown) [Compound 51]
EC50 (DENV2 [6]): 2.4 µM

BZ-Ala-Lys-Arg-Arg-H ({Bz′}-AKRR-aldehyde; also: C-terminal aldehyde)
Ki (NS2B-NS3 pro): 5.3 µM

kaempferol-3-O-rutinoside [Compound 24]
DENV inhibition (DENV): 77.7%

O=C(Nc1nc2cc(O)c(O)cc2s1)c1ccccc1Sc1ccc(C(F)(F)F)cc1 [Compound 38]
EC50 (DENV2 [7]): > 3 µM

CC(=O)O[C@H]1CC(C)(C)C(=C=C/C(C)=C/C=C/C=C/C=C(C)/C=C2C=C(/C=C/[C@@]34O[C@]3(C)C[C@@H](O)CC4(C)C)C(=O)O/2)[C@](C)(O)C1 [Compound 35, peridinin]
EC50 (DENV2 pro [8]): 8.5 ± 0.41 µM

O=C(Nc1nc2cc(O)c(O)cc2s1)c1ccccc1Oc1ccc2cc(O)ccc2c1 [Compound 39]
IC50 (DENV2 pro [1]): 4.2 ± 0.44 µM

Cc1ccc(C2=NC(=O)/C(=C/c3cc(O)c(O)c(Br)c3)S2)cc1 [Compound 42]
EC50 (DENV2 [5]): 6.9 ± 0.6 µM
IC50 (DENV 1–4 pro): 2.94 to 4.06 µM
